Test results from the NIST ThermoML archive (doi:10.1016/j.jct.2014.10.014).

Experiment: mn = molality of the nth substance listed, in mol/kg
Conditions: 100 kPa, Liquid, Alternating current cell with electrodes

C[C@H](CCC(=O)[O-])[C@H]1CC[C@H]2[C@@H]3[C@H](O)C[C@@H]4C[C@H](O)CC[C@]4(C)[C@H]3C[C@H](O)[C@]12C.[Na+] [sodium cholate] + O
electrical conductivity [S/m]
Conditions	293.15 K	298.15 K	303.15 K	308.15 K	313.15 K	318.15 K
m1 = 0.001	0.0066	0.007	0.005	0.007	0.0075	0.0115
m1 = 0.002	0.0129	0.014	0.0115	0.014	0.014	0.0175
m1 = 0.003	0.019	0.0204	0.018	0.02	0.02	0.0235
m1 = 0.004	0.0254	0.0267	0.0242	0.0263	0.0265	0.0305
m1 = 0.005	0.031	0.0326	0.0308	0.0332	0.0332	0.0369
m1 = 0.006	0.0378	0.0386	0.0373	0.0397	0.0395	0.043
m1 = 0.007	0.0434	0.0442	0.0439	0.0454	0.0466	0.0497
m1 = 0.008	0.0503	0.0498	0.0503	0.0524	0.0533	0.0565
m1 = 0.009	0.0558	0.0562	0.057	0.0584	0.06	0.0633
m1 = 0.01	0.0628	0.063	0.0635	0.0653	0.0668	0.0705
m1 = 0.011	0.0689	0.0687	0.07	0.0735	0.0745	0.0779
m1 = 0.012	0.0754	0.0753	0.076	0.0798	0.0815	0.0855
m1 = 0.013	0.0827	0.0825	0.082	0.0861	0.0885	0.093
m1 = 0.014	0.0881	0.088	0.0873	0.0911	0.0939	0.0985
m1 = 0.015	0.0929	0.0928	0.093	0.0967	0.0995	0.104
m1 = 0.016	0.0985	0.097	0.0981	0.102	0.104	0.111
m1 = 0.017	0.103	0.101	0.103	0.108	0.11	0.117
m1 = 0.018	0.107	0.105	0.108	0.113	0.115	0.122
m1 = 0.019	0.111	0.109	0.113	0.118	0.12	0.127
m1 = 0.02	0.115	0.112	0.118	0.123	0.126	0.132
